Here are results for six compounds from patent publication US5175180A, “N-substituted N-(alpha-triazolyl-toluyl)pyrrole compounds and use for treatment of circulatory disorders” (G. D. Searle & Co., priority 1990, dated 1992).

The structures appear in SMILES notation. Like-named read-outs stand apart in the source and are kept apart here.

Assay [1] addresses smooth muscle angiotensin II receptor. As to the kind of experiment: Assay A: Angiotensin II Binding Activity (displacement of 125I-angiotensin II, rat uterine membrane preparation). As to conditions: 50% displacement of specifically bound 125I-AII; rat uterine membranes, 25° C., 60 min, pH 7.5. As to the method:
Compounds of the invention were tested for ability to bind to the smooth muscle angiotensin II receptor using a rat uterine membrane preparation. […] Other chemicals were obtained from Sigma Chemical Co. This assay was carried out according to the method of Douglas et al [Endocrinology, 106, 120-124 (1980)]. Rat uterine membranes were prepared from fresh tissue. All procedures were carried out at 4° C. Uteri were stripped of fat and homogenized in phosphate-buffered saline at pH 7.4 containing 5 mM EDTA. The homogenate was centrifuged at 1500×g for 20 min., and the supernatant was recentrifuged at 100,000×g for 60 min. The pellet was resuspended in buffer consisting of 2 mM EDTA and 50 mM Tris-HCl (pH 7.5) to a final protein concentration of 4 mg/ml. […] The reaction was initiated by the addition of membrane protein and the mixture was incubated at 25° C. for 60 min. The incubation was terminated with ice-cold 50 mM Tris-HCl (pH 7.5) and the mixture was filtered to separate membrane-bound labelled peptide from the free ligand. The incubation tube and filter were washed with ice-cold buffer. Filters were assayed for radioactivity in a Micromedic gamma counter. […] Specific binding was calculated as total binding minus nonspecific binding. […] Binding data were analyzed by a nonlinear least-squares curve fitting program.

Assay [2] addresses T1, rabbit aortic rings (angiotensin II response) (Oryctolagus cuniculus, UniProt P34976).
T1 construct: The thoracic aorta was removed, cleaned of adherent fat and connective tissue; from tissue; host or cells: thoracic aorta rings without endothelium, male New Zealand white rabbit
T1 sequence (P34976 1-359): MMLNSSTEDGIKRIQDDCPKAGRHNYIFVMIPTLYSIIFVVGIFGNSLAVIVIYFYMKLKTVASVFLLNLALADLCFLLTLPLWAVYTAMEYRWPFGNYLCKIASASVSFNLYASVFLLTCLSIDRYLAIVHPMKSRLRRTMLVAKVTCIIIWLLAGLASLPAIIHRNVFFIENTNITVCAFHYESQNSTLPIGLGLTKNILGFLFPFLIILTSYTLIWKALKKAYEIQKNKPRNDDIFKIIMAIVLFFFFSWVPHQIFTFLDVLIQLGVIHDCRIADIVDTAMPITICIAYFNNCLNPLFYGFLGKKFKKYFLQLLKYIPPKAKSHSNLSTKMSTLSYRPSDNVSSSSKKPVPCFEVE
As to the kind of experiment: Assay B: In Vitro Vascular Smooth Muscle Response for AII (aortic rings). It counts as cell-based, rabbit (male New Zealand white). The method, then: The compounds of the invention were tested for antagonist activity in rabbit aortic rings. Male New Zealand white rabbits (2-2.5 kg) were sacrificed using an overdose of pentobarbital and exsanguinated via the carotid arteries. The thoracic aorta was removed, cleaned of adherent fat and connective tissue and then cut into 3-mm ring segments. The endothelium was removed from the rings by gently sliding a rolled-up piece of filter paper into the vessel lumen. The rings were then mounted in a water-jacketed tissue bath, maintained at 37° C., between moveable and fixed ends of a stainless steel wire with the moveable end attached to an FTO3 Grass transducer coupled to a Model 7D Grass Polygraph for recording isometric force responses. The bath was filled with 20 ml of oxygenated (95% oxygen/5% carbon dioxide) Krebs solution of the following composition (mM): 130 NaCl, 15 NaHCO3, […], 1.2 NaH2 PO4, 1.2 MgSO4, 2.5 CaCl2, and 11.4 glucose. The preparations were equilibrated for one hour before approximately one gram of passive tension was placed on the rings. Angiotensin II concentration-response curves were then recorded (3×10^-10 to 1×10^-5 M). […] The effectiveness of the test compound was expressed in terms of pA2 values and were calculated according to H. O. Schild [Br. J. Pharmacol. Chemother., 2, 189-206 (1947)]. […] Each test antagonist was evaluated in aorta rings from two rabbits.

Assay [3] concerns angiotensin II pressor response. As to the kind of experiment: Assay C: In Vivo Intraduodenal Pressor Assay Response for AII Antagonists. Set-up: species or system rat (male Sprague-Dawley). Conditions: 30 mg/kg i.d., average of two rats. The method, then:
Angiotensin II injections were then given 5, 10, 20, 30, 45, 60, 75, 90, and 120 minutes after administration of the test compound and response of arterial pressure was monitored. […] Duration of action of a test compound was defined as the time from peak percent inhibition to 50% of peak.

Assay [4] relates to angiotensin II. As to conditions: result in words, prior art; cited from earlier work.
For assay [5] the following is noted: result in words, prior art; cited from earlier work.

Consider `CCCCc1nc(CCCC)n(Cc2ccc(-n3c(Cl)cc(Cl)c3-c3nnn[nH]3)cc2)n1` [Example 5, 5-[1-[4-[(3,5-dibutyl-1H-1,2,4-triazol-1-yl)methyl]phenyl]-3,5-dichloro-1H-pyrrol-2-yl]-1H-tetrazole], for which the IC50 in assay [1] is 52 nM. For the same compound, the Kb in assay [2] was 20 nM. The Inhibition in assay [3] (percent inhibition of AII pressor response, AII 30 ng/kg i.v., ganglion-blocked anesthetized rats) stood at 85%. Besides, the Duration in assay [3] (time from peak percent inhibition to 50% of peak) is 75 min.

For `CCCCc1nc(Cl)c(CC(=O)O)n1Cc1ccccc1Cl` [2-n-butyl-4-chloro-1-(2-chlorobenzyl)imidazole-5-acetic acid], in assay [4], the “angiotensin II antagonist activity” value is “specific competitive angiotensin II antagonist activity”.

On to `Cc1ccc(C(c2ccc(-n3cccc3)cc2)n2cncn2)cc1` (stereo not shown) [1-[(4-methylphenyl)[4-(1H-pyrrol-1-yl)phenyl]methyl]-1H-1,2,4-triazole], for which the “antibacterial and antifungal properties” value in assay [5] is “antibacterial and antifungal properties”.

Take `CNCC(=O)N[C@@H](CCCN=C(N)N)C(=O)N[C@H](C(=O)N[C@@H](Cc1ccc(O)cc1)C(=O)N[C@H](C(=O)N[C@@H](Cc1cnc[nH]1)C(=O)N1CCC[C@H]1C(=O)N[C@@H](C)C(=O)O)C(C)C)C(C)C` [Saralasin]: in assay [4], the “angiotensin II antagonist activity” value is given as “significant residual antagonist activity”.

Turning to `CCCCc1nc(CCCC)n(Cc2ccc(-n3c(Br)ccc3-c3nnn[nH]3)cc2)n1` [Example 3, 5-[1-[4-[(3,5-di-n-butyl-1H-1,2,4-triazol-1-yl)methyl]phenyl]-5-bromo-1H-pyrrol-2-yl]-1H-tetrazole], the IC50 in assay [1] is 110 nM. Besides, the Kb in assay [2] (rabbit aortic rings, 37° C., antagonist 5 min before AII challenge, two rabbits, Schild, read-out: pA2 (converted)) was 9.55 nM.

For `CCCCc1nc(Cl)c(CC(=O)O)n1Cc1ccccc1[N+](=O)[O-]` [(2-butyl-4-chloro-1-(2-nitrobenzyl)imidazole-5-acetic acid], in assay [4], the “angiotensin II antagonist activity” value was “specific competitive angiotensin II antagonist activity”.

As a reminder, the IC50 is the concentration at which inhibition is half-maximal. The term Inhibition denotes the relative decrease from the control value, in per cent. The low end stands for a weak effect, the high end for a strong effect.
